Measurements published in patent US20250288683A1, “TETRAHYDROISOQUINOLINE HETEROBIFUNCTIONAL BCL-XL DEGRADERS” (Treeline Biosciences, Inc., priority 2022, published 2025).

Target: T1, Human BCL-XL protein (N-terminal HiBiT tagged BCL-XL in HT1080 cells) (Homo sapiens, UniProt Q07817)
T1 construct: expressed in transfected cells; host or cells: HT-1080 (ATCC CCL-121), stably transduced with lentivirus pLV-UBC-N-HiBiT-BCL-XL-PGK-puro and selected with puromycin
Assay: HiBiT based degradation assay
Type: cell-based
Conditions: HT1080 cells expressing N-terminal HiBiT tagged BCL-XL, normalized with DMSO control
Source text: HiBiT Based Degradation Assay
Human BCL-XL protein coding open reading frame fused with N-terminal HiBiT coding sequence was synthesized from Integrated DNA Technologies (IDT). Next, N-HiBiT-BCL-XL sequence was cloned into pLV-UBC-PGK-Puro, a lentivirus plasmid purchased from Vectorbuilder, to generate pLV-UBC-N-HiBiT-BCL-XL-PGK-puro. Lentiviral particles were generated from Lenti-X™ 293T cells (Clontech) by co-transfection of pLV-UBC-N-HiBiT-BCL-XL-PGK-puro plasmids and lentiviral packaging plasmid mix (Cellecta). HT-1080 [HT1080](ATCC CCL-121) cells were infected with the lentivirus, and HT1080 cells stably integrated with the lentiviral vectors were established by incubation with 1 μg/mL puromycin (Thermofisher).
HT1080 cells expressing N-terminal HiBiT tagged BCL-XL were dispensed into a 384-well plate pre-spotted with compounds at varying concentrations. Three thousand cells were seeded into each well in 40 μL of RPMI 1640 media. […] After incubation, luminescence was read on a PHERAstar FSX Plate Reader (BMG). BCL-XL degradation at each indicated concentration was normalized with the DMSO control. The BCL-XL degradation curves were plotted using a four-parameter logistic model. For compounds displaying hook effects, the curve fitting was performed using the bottom point of the hook curves (i.e., the point of Ymin) as the bottom plateau to calculate EC50.

T1 sequence (Q07817 whole entry): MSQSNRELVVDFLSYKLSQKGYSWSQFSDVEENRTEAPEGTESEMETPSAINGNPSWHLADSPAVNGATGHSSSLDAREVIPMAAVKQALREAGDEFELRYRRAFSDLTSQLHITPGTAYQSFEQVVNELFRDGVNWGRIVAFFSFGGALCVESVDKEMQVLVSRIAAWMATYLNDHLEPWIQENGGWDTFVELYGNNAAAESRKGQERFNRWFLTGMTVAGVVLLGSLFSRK

| SMILES | Ymin (24 h) | Ymin (6 h) |
| --- | --- | --- |
| Cc1ncsc1-c1ccc([C@H](C)NC(=O)[C@@H]2C[C@@H](O)CN2C(=O)[C@@H](NC(=O)C[C@@H](Cc2ccc(Oc3cccc(-c4ccc(N5CCc6cccc(C(=O)Nc7nc8ccccc8s7)c6C5)nc4C(=O)O)c3C)cc2)C(F)(F)F)C(C)(C)C)cc1 (relative stereo) [Compound 131b, 6-(8-(benzo[d]thiazol-2-ylcarbamoyl)-3,4-dihydroisoquinolin-2 (1H)-yl)-3-(3-(4-((R)-4-(((S)-1-((2S,4R)-4-hydroxy-2-(((S)-1-(4-(4-methylthiazol-5-yl)phenyl)ethyl)carbamoyl)pyrrolidin-1-yl)-3,3-dimethyl-1-oxobutan-2-yl)amino)-4-oxo-2-(trifluoromethyl)butyl)phenoxy)-2-methylphenyl)picolinic acid] | B (50% ≤ Ymin < 70%) | – |
| Cc1ncsc1-c1ccc([C@H](C)NC(=O)[C@@H]2C[C@@H](O)CN2C(=O)[C@@H](NC(=O)C[C@@H](C)Cc2ccc(Oc3cccc(-c4ccc(N5CCc6cccc(C(=O)Nc7nc8ccccc8s7)c6C5)nc4C(=O)O)c3C)cc2)C(C)(C)C)cc1 (relative stereo) [Compound 134a, 6-[8-(1,3-benzothiazol-2-ylcarbamoyl)-3,4-dihydro-1H-isoquinolin-2-yl]-3-[3-[4-[(2S)-4-[[(1S)-1-[(2S,4R)-4-hydroxy-2-[[(1S)-1-[4-(4-methylthiazol-5-yl)phenyl]ethyl]carbamoyl]pyrrolidine-1-carbonyl]-2,2-dimethyl-propyl]amino]-2-methyl-4-oxo-butyl]phenoxy]-2-methyl-phenyl]pyridine-2-carboxylic acid] | A (Ymin < 50%) | – |
| Cc1ncsc1-c1ccc([C@H](C)NC(=O)[C@@H]2C[C@@H](O)CN2C(=O)[C@@H](NC(=O)CC[C@@H](c2ccc(Oc3cccc(-c4ccc(N5CCc6cccc(C(=O)Nc7nc8ccccc8s7)c6C5)nc4C(=O)O)c3C)cc2)C(F)(F)F)C(C)(C)C)cc1 (relative stereo) [Compound 135a, 6-(8-(benzo[d]thiazol-2-ylcarbamoyl)-3,4-dihydroisoquinolin-2 (1H)-yl)-3-(2-methyl-3-(4-((S)-1,1,1-trifluoro-5-(((S)-1-((2S,4R)-4-hydroxy-2-(((S)-1-(4-(4-methylthiazol-5-yl)phenyl)ethyl)carbamoyl)pyrrolidin-1-yl)-3,3-dimethyl-1-oxobutan-2-yl)amino)-5-oxopentan-2-yl)phenoxy)phenyl)picolinic acid] | A (Ymin < 50%) | – |
| Cc1ncsc1-c1ccc([C@H](C)NC(=O)[C@@H]2C[C@@H](O)CN2C(=O)[C@@H](NC(=O)CC[C@H](c2ccc(Oc3cccc(-c4ccc(N5CCc6cccc(C(=O)Nc7nc8ccccc8s7)c6C5)nc4C(=O)O)c3C)cc2)C(F)(F)F)C(C)(C)C)cc1 (relative stereo) [Compound 135b, 6-(8-(benzo[d]thiazol-2-ylcarbamoyl)-3,4-dihydroisoquinolin-2 (1H)-yl)-3-(2-methyl-3-(4-((R)-1,1,1-trifluoro-5-(((S)-1-((2S,4R)-4-hydroxy-2-(((S)-1-(4-(4-methylthiazol-5-yl)phenyl)ethyl)carbamoyl)pyrrolidin-1-yl)-3,3-dimethyl-1-oxobutan-2-yl)amino)-5-oxopentan-2-yl)phenoxy)phenyl)picolinic acid] | A (Ymin < 50%) | – |
| Cc1ncsc1-c1ccc([C@H](C)NC(=O)[C@@H]2C[C@@H](O)CN2C(=O)[C@@H](NC(=O)CC[C@H](C)c2ccc(Oc3cccc(-c4ccc(N5CCc6cccc(C(=O)Nc7nc8ccccc8s7)c6C5)nc4C(=O)O)c3C)cc2)C(C)(C)C)cc1 (single isomer, unassigned) [Compound 129a] | A (Ymin < 50%) | – |
| Cc1ncsc1-c1ccc([C@H](C)NC(=O)[C@@H]2C[C@@H](O)CN2C(=O)[C@@H](NC(=O)CC[C@@H](C)c2ccc(Oc3cccc(-c4ccc(N5CCc6cccc(C(=O)Nc7nc8ccccc8s7)c6C5)nc4C(=O)O)c3C)cc2)C(C)(C)C)cc1 (single isomer, unassigned) [Compound 129b] | A (Ymin < 50%) | – |
| Cc1ncsc1-c1ccc([C@H](C)NC(=O)[C@@H]2C[C@@H](O)CN2C(=O)[C@@H](NC(=O)C[C@H](Cc2ccc(Oc3cccc(-c4ccc(N5CCc6cccc(C(=O)Nc7nc8ccccc8s7)c6C5)nc4C(=O)O)c3C)cc2)C(F)(F)F)C(C)(C)C)cc1 (single isomer, unassigned) [Compound 131a] | A (Ymin < 50%) | – |
| Cc1ncsc1-c1ccc([C@H](C)NC(=O)[C@@H]2C[C@@H](O)CN2C(=O)[C@@H](NC(=O)CC(C)Cc2ccc(Oc3cccc(-c4ccc(N5CCc6cccc(C(=O)Nc7nc8ccccc8s7)c6C5)nc4C(=O)O)c3C)cc2)C(C)(C)C)cc1 (single isomer, unassigned) [Compound 134b, 6-(8-(benzo[d]thiazol-2-ylcarbamoyl)-3,4-dihydroisoquinolin-2(1H)-yl)-3-(3-(4-((R*)-4-(((S)-1-((2S,4R)-4-hydroxy-2-(((S)-1-(4-(4-methylthiazol-5-yl)phenyl)ethyl)carbamoyl)pyrrolidin-1-yl)-3,3-dimethyl-1-oxobutan-2-yl)amino)-2-methyl-4-oxobutyl)phenoxy)-2-methylphenyl)picolinic acid] | A (Ymin < 50%) | – |
| Cc1ncsc1-c1ccc([C@H](C)NC(=O)[C@@H]2C[C@@H](O)CN2C(=O)[C@@H](NC(=O)C(C)(C)[C@H]2CC[C@@H](Oc3cccc(-c4ccc(N5CCc6cccc(C(=O)Nc7nc8ccccc8s7)c6C5)nc4C(=O)O)c3C)CC2)C(C)(C)C)cc1 (single isomer, unassigned) [Compound 138a] | A (Ymin < 50%) | – |
| Cc1ncsc1-c1ccc([C@H](C)NC(=O)[C@@H]2C[C@@H](O)CN2C(=O)[C@@H](NC(=O)C(C)(C)[C@H]2CC[C@H](Oc3cccc(-c4ccc(N5CCc6cccc(C(=O)Nc7nc8ccccc8s7)c6C5)nc4C(=O)O)c3C)CC2)C(C)(C)C)cc1 (single isomer, unassigned) [Compound 138b] | C (Ymin ≥ 70%) | – |
| Cc1ncsc1-c1ccc([C@H](C)NC(=O)[C@@H]2C[C@@H](O)CN2C(=O)[C@@H](NC(=O)[C@H](C)CCc2ccc(Oc3cccc(-c4ccc(N5CCc6cccc(C(=O)Nc7nc8ccccc8s7)c6C5)nc4C(=O)O)c3C)cc2)C(C)(C)C)cc1 (single isomer, unassigned) [Compound 143a] | A (Ymin < 50%) | – |
| Cc1ncsc1-c1ccc([C@H](C)NC(=O)[C@@H]2C[C@@H](O)CN2C(=O)[C@@H](NC(=O)[C@@H](C)CCc2ccc(Oc3cccc(-c4ccc(N5CCc6cccc(C(=O)Nc7nc8ccccc8s7)c6C5)nc4C(=O)O)c3C)cc2)C(C)(C)C)cc1 (single isomer, unassigned) [Compound 143b] | A (Ymin < 50%) | – |
| Cc1ncsc1-c1ccc([C@H](C)NC(=O)[C@@H]2C[C@@H](O)CN2C(=O)[C@@H](NC(=O)CCCCCn2nc(C)c(-c3ccc(N4CCc5cccc(C(=O)Nc6nc7ccccc7s6)c5C4)nc3C(=O)O)c2C)C(C)(C)C)cc1 [Compound 101a, 6-[8-(1,3-benzothiazol-2-ylcarbamoyl)-3,4-dihydro-1H-isoquinolin-2-yl]-3-[1-[6-[[(1S)-1-[(2S,4R)-4-hydroxy-2-[[(1S)-1-[4-(4-methylthiazol-5-yl)phenyl]ethyl]carbamoyl]pyrrolidine-1-carbonyl]-2,2-dimethyl-propyl]amino]-6-oxo-hexyl]-3,5-dimethyl-pyrazol-4-yl]pyridine-2-carboxylic acid] | – | A (Ymin < 50%) |
| Cc1ncsc1-c1ccc([C@H](C)NC(=O)[C@@H]2C[C@@H](O)CN2C(=O)[C@@H](NC(=O)CCCCCCCCCCCCCCCn2nc(C)c(-c3ccc(N4CCc5cccc(C(=O)Nc6nc7ccccc7s6)c5C4)nc3C(=O)O)c2C)C(C)(C)C)cc1 [Compound 102a, 6-[8-(1,3-Benzothiazol-2-ylcarbamoyl)-3,4-dihydro-1H-isoquinolin-2-yl]-3-[1-[16-[[(1S)-1-[(2S,4R)-4-hydroxy-2-[[(1S)-1-[4-(4-methylthiazol-5-yl)phenyl]ethyl]carbamoyl]pyrrolidine-1-carbonyl]-2,2-dimethyl-propyl]amino]-16-oxo-hexadecyl]-3,5-dimethyl-pyrazol-4-yl]pyridine-2-carboxylic acid] | – | A (Ymin < 50%) |
| Cc1ncsc1-c1ccc([C@H](C)NC(=O)[C@@H]2C[C@@H](O)CN2C(=O)[C@@H](NC(=O)CCCCCCCn2nc(C)c(-c3ccc(N4CCc5cccc(C(=O)Nc6nc7ccccc7s6)c5C4)nc3C(=O)O)c2C)C(C)(C)C)cc1 [Compound 103a, 6-[8-(1,3-benzothiazol-2-ylcarbamoyl)-3,4-dihydro-1H-isoquinolin-2-yl]-3-[1-[8-[[(1S)-1-[(2S,4R)-4-hydroxy-2-[[(1S)-1-[4-(4-methylthiazol-5-yl)phenyl]ethyl]carbamoyl]pyrrolidine-1-carbonyl]-2,2-dimethyl-propyl]amino]-8-oxo-octyl]-3,5-dimethyl-pyrazol-4-yl]pyridine-2-carboxylic acid] | – | A (Ymin < 50%) |
